According to ChEMBL document CHEMBL4138123, “Design, synthesis and biological evaluation of novel pyrazolochalcones as potential modulators of PI3K/Akt/mTOR pathway and inducers of apoptosis in breast cancer cells” (Eur J Med Chem, 2017):

Key:
[1] = test system: OVCAR-4; test: Cytotoxicity against human OVCAR4 cells assessed as cell growth at 1 uM after 48 hrs by sulforhodamine B assay relative to control; assay type: functional; conditions: OVCAR-4, 48 h, read-out: Activity
[2] = test system: OVCAR-3; test: Cytotoxicity against human OVCAR3 cells assessed as cell growth at 100 uM after 48 hrs by sulforhodamine B assay relative to control; assay type: functional; conditions: OVCAR-3, 48 h, read-out: Activity
[3] = test system: SF-268; test: Cytotoxicity against human SF268 cells assessed as growth inhibition after 48 hrs by sulforhodamine B assay; assay type: functional; conditions: SF-268, 48 h; for CC50: read-out: LC50 (the source's name)
[4] = test system: UACC-257; test: Cytotoxicity against human UACC257 cells assessed as cell growth at 0.1 uM after 48 hrs by sulforhodamine B assay relative to control; assay type: functional; conditions: UACC-257, 48 h, read-out: Activity
[5] = test system: MDA-MB-468; test: Cytotoxicity against human MDA-MB-468 cells assessed as cell growth at 100 uM after 48 hrs by sulforhodamine B assay relative to control; assay type: functional; conditions: MDA-MB-468, 48 h, read-out: Activity
[6] = test system: COLO 205; test: Cytotoxicity against human COLO205 cells assessed as cell growth at 1 uM after 48 hrs by sulforhodamine B assay relative to control; assay type: functional; conditions: COLO 205, 48 h, read-out: Activity
[7] = test system: NCI-H23; test: Cytotoxicity against human NCI-H23 cells assessed as cell growth at 0.01 uM after 48 hrs by sulforhodamine B assay relative to control; assay type: functional; conditions: NCI-H23, 48 h, read-out: Activity
[8] = test system: Malme-3M; test: Cytotoxicity against human MALME-3M cells assessed as cell growth at 100 uM after 48 hrs by sulforhodamine B assay relative to control; assay type: functional; conditions: read-out: Activity
[9] = test system: A549; test: Cytotoxicity against human A549/ATCC cells assessed as cell growth at 1 uM after 48 hrs by sulforhodamine B assay relative to control; assay type: functional; conditions: A549, 48 h, read-out: Activity
[10] = test system: MDA-MB-231; test: Cytotoxicity against human MDA-MB-231 cells assessed as cell growth at 0.01 uM after 48 hrs by sulforhodamine B assay relative to control; assay type: functional; conditions: MDA-MB-231, 48 h, read-out: Activity
[11] = test system: OVCAR-5; test: Cytotoxicity against human OVCAR5 cells assessed as cell growth at 100 uM after 48 hrs by sulforhodamine B assay relative to control; assay type: functional; conditions: OVCAR-5, 48 h, read-out: Activity
[12] = test system: MDA-MB-231; test: Cytotoxicity against human MDA-MB-231 cells assessed as growth inhibition after 48 hrs by sulforhodamine B assay; assay type: functional; conditions: MDA-MB-231, 48 h
[13] = test system: NCI-H460; test: Cytotoxicity against human NCI-H460 cells assessed as cell growth at 1 uM after 48 hrs by sulforhodamine B assay relative to control; assay type: functional; conditions: NCI-H460, 48 h, read-out: Activity
[14] = test system: SW-620; test: Cytotoxicity against human SW620 cells assessed as cell growth at 1 uM after 48 hrs by sulforhodamine B assay relative to control; assay type: functional; conditions: SW-620, 48 h, read-out: Activity
[15] = test system: SK-OV-3; test: Cytotoxicity against human SKOV3 cells assessed as cell growth at 10 uM after 48 hrs by sulforhodamine B assay relative to control; assay type: functional; conditions: SK-OV-3, 48 h, read-out: Activity
[16] = test system: A549; test: Cytotoxicity against human A549/ATCC cells assessed as cell growth at 100 uM after 48 hrs by sulforhodamine B assay relative to control; assay type: functional; conditions: A549, 48 h, read-out: Activity
[17] = test system: HCT-116; test: Cytotoxicity against human HCT116 cells assessed as cell growth at 100 uM after 48 hrs by sulforhodamine B assay relative to control; assay type: functional; conditions: HCT-116, 48 h, read-out: Activity
[18] = test system: MDA-MB-468; test: Cytotoxicity against human MDA-MB-468 cells assessed as cell growth at 0.1 uM after 48 hrs by sulforhodamine B assay relative to control; assay type: functional; conditions: MDA-MB-468, 48 h, read-out: Activity
[19] = test system: HL-60(TB); test: Cytotoxicity against human HL-60(TB) cells assessed as cell growth at 0.01 uM after 48 hrs by sulforhodamine B assay relative to control; assay type: functional; conditions: HL-60, 48 h, read-out: Activity
[20] = test system: KM12; test: Cytotoxicity against human KM12 cells assessed as cell growth at 0.01 uM after 48 hrs by sulforhodamine B assay relative to control; assay type: functional; conditions: KM12, 48 h, read-out: Activity
[21] = test system: MDA-MB-231; test: Cytotoxicity against human MDA-MB-231 cells assessed as cell growth at 1 uM after 48 hrs by sulforhodamine B assay relative to control; assay type: functional; conditions: MDA-MB-231, 48 h, read-out: Activity
[22] = test system: SNB-19; test: Cytotoxicity against human SNB19 cells assessed as cell growth at 100 uM after 48 hrs by sulforhodamine B assay relative to control; assay type: functional; conditions: SNB-19, 48 h, read-out: Activity
[23] = test system: COLO 205; test: Cytotoxicity against human COLO205 cells assessed as cell growth at 0.01 uM after 48 hrs by sulforhodamine B assay relative to control; assay type: functional; conditions: COLO 205, 48 h, read-out: Activity
[24] = test system: ACHN; test: Cytotoxicity against human ACHN cells assessed as cell growth at 1 uM after 48 hrs by sulforhodamine B assay relative to control; assay type: functional; conditions: read-out: Activity
[25] = test system: T47D; test: Cytotoxicity against human T47D cells assessed as growth inhibition after 48 hrs by sulforhodamine B assay; assay type: functional
[26] = test system: RXF 393; test: Cytotoxicity against human RXF393 cells assessed as cell growth at 100 uM after 48 hrs by sulforhodamine B assay relative to control; assay type: functional; conditions: RXF 393, 48 h, read-out: Activity
[27] = test system: SF-268; test: Cytotoxicity against human SF268 cells assessed as cell growth at 1 uM after 48 hrs by sulforhodamine B assay relative to control; assay type: functional; conditions: SF-268, 48 h, read-out: Activity
[28] = test system: SF-539; test: Cytotoxicity against human SF539 cells assessed as cell growth at 10 uM after 48 hrs by sulforhodamine B assay relative to control; assay type: functional; conditions: SF-539, 48 h, read-out: Activity
[29] = test system: SK-OV-3; test: Cytotoxicity against human SKOV3 cells assessed as cell growth at 100 uM after 48 hrs by sulforhodamine B assay relative to control; assay type: functional; conditions: SK-OV-3, 48 h, read-out: Activity
[30] = test system: NCI-H460; test: Cytotoxicity against human NCI-H460 cells assessed as cell growth at 100 uM after 48 hrs by sulforhodamine B assay relative to control; assay type: functional; conditions: NCI-H460, 48 h, read-out: Activity
[31] = test system: MDA-MB-435; test: Cytotoxicity against human MDA-MB-435 cells assessed as growth inhibition after 48 hrs by sulforhodamine B assay; assay type: functional; conditions: MDA-MB-435, 48 h
[32] = test system: HOP-62; test: Cytotoxicity against human HOP62 cells assessed as cell growth at 0.1 uM after 48 hrs by sulforhodamine B assay relative to control; assay type: functional; conditions: HOP-62, 48 h, read-out: Activity
[33] = test system: T47D; test: Cytotoxicity against human T47D cells assessed as cell growth at 0.1 uM after 48 hrs by sulforhodamine B assay relative to control; assay type: functional; conditions: read-out: Activity
[34] = test system: MDA-MB-231; test: Cytotoxicity against human MDA-MB-231 cells assessed as growth inhibition after 48 hrs by MTT assay; assay type: functional, cell-based; conditions: MDA-MB-231, 48 h
[35] = test system: TK-10; test: Cytotoxicity against human TK10 cells assessed as cell growth at 0.01 uM after 48 hrs by sulforhodamine B assay relative to control; assay type: functional; conditions: TK-10, 48 h, read-out: Activity
[36] = test system: OVCAR-4; test: Cytotoxicity against human OVCAR4 cells assessed as cell growth at 0.01 uM after 48 hrs by sulforhodamine B assay relative to control; assay type: functional; conditions: OVCAR-4, 48 h, read-out: Activity

## COc1ccc(-c2cc(/C=C/C(=O)c3ccc(N)cc3)[nH]n2)cc1
[1]
  growth at 1 µM: 52%
[2]
  growth at 100 µM: -85%
[3]
  GI50: 1.81 µM
  TGI: 5.31 µM
  CC50: 45.7 µM
[4]
  growth at 0.1 µM: 97%
[5]
  growth at 100 µM: -51%
[6]
  growth at 1 µM: 100%
[7]
  growth at 0.01 µM: 92%
[8]
  growth at 100 µM: -82%
[9]
  growth at 1 µM: 84%
[10]
  growth at 0.01 µM: 93%
[11]
  growth at 100 µM: -86%
[12]
  GI50: 2.14 µM
  LC50: 55.5 µM
  TGI: 8.29 µM
[13]
  growth at 1 µM: 92%
[14]
  growth at 1 µM: 72%
[15]
  growth at 10 µM: 23%
[16]
  growth at 100 µM: -75%
[17]
  growth at 100 µM: -15%
[18]
  growth at 0.1 µM: 86%
[19]
  growth at 0.01 µM: 96%
[20]
  growth at 0.01 µM: 96%
[21]
  growth at 1 µM: 78%
[22]
  growth at 100 µM: -80%
[23]
  growth at 0.01 µM: 97%
[24]
  growth at 1 µM: 71%
[25]
  GI50: 1.47 µM
  LC50: 85.8 µM
  TGI: 9.77 µM
[26]
  growth at 100 µM: -63%
[27]
  growth at 1 µM: 78%
[28]
  growth at 10 µM: -61%
[29]
  growth at 100 µM: -68%
[30]
  growth at 100 µM: -70%
[31]
  GI50: 2.24 µM
  LC50: 38.2 µM
  TGI: 7 µM
[32]
  growth at 0.1 µM: 100%
[33]
  growth at 0.1 µM: 87%
[34]
  IC50: 1.7 µM
[35]
  growth at 0.01 µM: 93%
[36]
  growth at 0.01 µM: 88%

## COc1cc(-c2cc(/C=C/C(=O)c3ccc4c(c3)OCO4)[nH]n2)cc(OC)c1OC
[1]
  growth at 1 µM: 82%
[2]
  growth at 100 µM: -38%
[3]
  TGI: 14.5 µM
  CC50: > 100 µM
[4]
  growth at 0.1 µM: 91%
[5]
  growth at 100 µM: -85%
[6]
  growth at 1 µM: 93%
[7]
  growth at 0.01 µM: 96%
[8]
  growth at 100 µM: -56%
[9]
  growth at 1 µM: 92%
[10]
  growth at 0.01 µM: 101%
[12]
  LC50: > 100 µM
  TGI: > 100 µM
[13]
  growth at 1 µM: 93%
[14]
  growth at 1 µM: 88%
[15]
  growth at 10 µM: 33%
[16]
  growth at 100 µM: 8%
[17]
  growth at 100 µM: 1%
[18]
  growth at 0.1 µM: 90%
[19]
  growth at 0.01 µM: 98%
[20]
  growth at 0.01 µM: 96%
[21]
  growth at 1 µM: 86%
[22]
  growth at 100 µM: 6%
[23]
  growth at 0.01 µM: 105%
[24]
  growth at 1 µM: 96%
[25]
  LC50: > 100 µM
  TGI: 17 µM
[26]
  growth at 100 µM: -89%
[27]
  growth at 1 µM: 90%
[28]
  growth at 10 µM: -27%
[29]
  growth at 100 µM: -47%
[30]
  growth at 100 µM: -34%
[31]
  LC50: > 100 µM
[32]
  growth at 0.1 µM: 100%
[33]
  growth at 0.1 µM: 91%
[34]
  IC50: 1.72 µM
[35]
  growth at 0.01 µM: 89%
[36]
  growth at 0.01 µM: 91%
